Laboratory results: BigSolDB 2.1

CC(CO)(CO)C(=O)O
solubility (mole fraction)
Conditions | 288.15 K | 293.15 K | 298.15 K | 303.15 K | 308.15 K | 313.15 K | 318.15 K | 323.15 K | 328.15 K
in DMF | 0.163 | 0.171 | 0.177 | 0.184 | 0.191 | 0.201 | 0.21 | 0.218 | 0.225
in acetone | 0.00255 | 0.00292 | 0.00366 | 0.004 | 0.00477 | 0.00564 | 0.00645 | 0.00753 | 0.00853
in ethanol | 0.0117 | 0.0135 | 0.0155 | 0.0186 | 0.0214 | 0.0254 | 0.0293 | 0.0341 | 0.0386
in ethyl acetate | 0.00042 | 0.00048 | 0.00056 | 0.00072 | 0.00096 | 0.00131 | 0.00163 | 0.00202 | 0.00253
in isopropanol | 0.00755 | 0.00901 | 0.0114 | 0.0131 | 0.0164 | 0.0185 | 0.0209 | 0.0252 | 0.0306
in methanol | 0.0223 | 0.0254 | 0.0288 | 0.0334 | 0.038 | 0.0436 | 0.0498 | 0.0566 | 0.0635
in methyl acetate | 0.00052 | 0.00072 | 0.00094 | 0.00121 | 0.00149 | 0.00186 | 0.00234 | 0.00301 | 0.0041
in n-butanol | 0.00666 | 0.00759 | 0.00911 | 0.0108 | 0.0132 | 0.0155 | 0.0181 | 0.0214 | 0.0257
in n-butyl acetate | 0.00033 | 0.00038 | 0.00046 | 0.00053 | 0.00063 | 0.00075 | 0.00087 | 0.00098 | 0.00113
in n-propanol | 0.00677 | 0.00775 | 0.00939 | 0.0111 | 0.0136 | 0.0161 | 0.0189 | 0.0226 | 0.027
in sec-butanol | 0.0068 | 0.00792 | 0.00935 | 0.0112 | 0.014 | 0.0165 | 0.0191 | 0.0232 | 0.0277
in water | 0.0133 | 0.0152 | 0.0169 | 0.0199 | 0.0231 | 0.0265 | 0.0305 | 0.0349 | 0.0414
